Usually IC50 stands for the concentration needed to halve the response being measured. Lower therefore signals greater potency.

Results on 76 compounds are retold here after patent US8835472B2, “Compounds, pharmaceutical compositions and uses thereof” (Boehringer Ingelheim International GmbH, priority 2010, dated 2014).

Molecules are shown by their SMILES.

The target of the experiment is human ACC2 (Homo sapiens (Human), UniProt O00763). In words: ACC2 assay, spectrophotometric 384 well assay (NADH-linked, coupled lactate dehydrogenase/pyruvate kinase reaction). It is filed as biochemical. The following applies: hACC2 construct lacking the 128 N-terminal amino acids; 25° C., 340 nm over 15 minutes. In a few lines: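 Kinetic NADH-linked assay (pyruvate kinase/lactate dehydrogenase coupling) with baculovirus-expressed hACC2 missing its first 128 amino acids. Started with 500 μM ATP and 200 μM each NADH and acetyl-CoA; slope followed 15 min at 25 °C, pH 7.5. No-acetyl-CoA wells define 0%; IC50 by nonlinear regression.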
human ACC2, sequence (O00763 129-2458): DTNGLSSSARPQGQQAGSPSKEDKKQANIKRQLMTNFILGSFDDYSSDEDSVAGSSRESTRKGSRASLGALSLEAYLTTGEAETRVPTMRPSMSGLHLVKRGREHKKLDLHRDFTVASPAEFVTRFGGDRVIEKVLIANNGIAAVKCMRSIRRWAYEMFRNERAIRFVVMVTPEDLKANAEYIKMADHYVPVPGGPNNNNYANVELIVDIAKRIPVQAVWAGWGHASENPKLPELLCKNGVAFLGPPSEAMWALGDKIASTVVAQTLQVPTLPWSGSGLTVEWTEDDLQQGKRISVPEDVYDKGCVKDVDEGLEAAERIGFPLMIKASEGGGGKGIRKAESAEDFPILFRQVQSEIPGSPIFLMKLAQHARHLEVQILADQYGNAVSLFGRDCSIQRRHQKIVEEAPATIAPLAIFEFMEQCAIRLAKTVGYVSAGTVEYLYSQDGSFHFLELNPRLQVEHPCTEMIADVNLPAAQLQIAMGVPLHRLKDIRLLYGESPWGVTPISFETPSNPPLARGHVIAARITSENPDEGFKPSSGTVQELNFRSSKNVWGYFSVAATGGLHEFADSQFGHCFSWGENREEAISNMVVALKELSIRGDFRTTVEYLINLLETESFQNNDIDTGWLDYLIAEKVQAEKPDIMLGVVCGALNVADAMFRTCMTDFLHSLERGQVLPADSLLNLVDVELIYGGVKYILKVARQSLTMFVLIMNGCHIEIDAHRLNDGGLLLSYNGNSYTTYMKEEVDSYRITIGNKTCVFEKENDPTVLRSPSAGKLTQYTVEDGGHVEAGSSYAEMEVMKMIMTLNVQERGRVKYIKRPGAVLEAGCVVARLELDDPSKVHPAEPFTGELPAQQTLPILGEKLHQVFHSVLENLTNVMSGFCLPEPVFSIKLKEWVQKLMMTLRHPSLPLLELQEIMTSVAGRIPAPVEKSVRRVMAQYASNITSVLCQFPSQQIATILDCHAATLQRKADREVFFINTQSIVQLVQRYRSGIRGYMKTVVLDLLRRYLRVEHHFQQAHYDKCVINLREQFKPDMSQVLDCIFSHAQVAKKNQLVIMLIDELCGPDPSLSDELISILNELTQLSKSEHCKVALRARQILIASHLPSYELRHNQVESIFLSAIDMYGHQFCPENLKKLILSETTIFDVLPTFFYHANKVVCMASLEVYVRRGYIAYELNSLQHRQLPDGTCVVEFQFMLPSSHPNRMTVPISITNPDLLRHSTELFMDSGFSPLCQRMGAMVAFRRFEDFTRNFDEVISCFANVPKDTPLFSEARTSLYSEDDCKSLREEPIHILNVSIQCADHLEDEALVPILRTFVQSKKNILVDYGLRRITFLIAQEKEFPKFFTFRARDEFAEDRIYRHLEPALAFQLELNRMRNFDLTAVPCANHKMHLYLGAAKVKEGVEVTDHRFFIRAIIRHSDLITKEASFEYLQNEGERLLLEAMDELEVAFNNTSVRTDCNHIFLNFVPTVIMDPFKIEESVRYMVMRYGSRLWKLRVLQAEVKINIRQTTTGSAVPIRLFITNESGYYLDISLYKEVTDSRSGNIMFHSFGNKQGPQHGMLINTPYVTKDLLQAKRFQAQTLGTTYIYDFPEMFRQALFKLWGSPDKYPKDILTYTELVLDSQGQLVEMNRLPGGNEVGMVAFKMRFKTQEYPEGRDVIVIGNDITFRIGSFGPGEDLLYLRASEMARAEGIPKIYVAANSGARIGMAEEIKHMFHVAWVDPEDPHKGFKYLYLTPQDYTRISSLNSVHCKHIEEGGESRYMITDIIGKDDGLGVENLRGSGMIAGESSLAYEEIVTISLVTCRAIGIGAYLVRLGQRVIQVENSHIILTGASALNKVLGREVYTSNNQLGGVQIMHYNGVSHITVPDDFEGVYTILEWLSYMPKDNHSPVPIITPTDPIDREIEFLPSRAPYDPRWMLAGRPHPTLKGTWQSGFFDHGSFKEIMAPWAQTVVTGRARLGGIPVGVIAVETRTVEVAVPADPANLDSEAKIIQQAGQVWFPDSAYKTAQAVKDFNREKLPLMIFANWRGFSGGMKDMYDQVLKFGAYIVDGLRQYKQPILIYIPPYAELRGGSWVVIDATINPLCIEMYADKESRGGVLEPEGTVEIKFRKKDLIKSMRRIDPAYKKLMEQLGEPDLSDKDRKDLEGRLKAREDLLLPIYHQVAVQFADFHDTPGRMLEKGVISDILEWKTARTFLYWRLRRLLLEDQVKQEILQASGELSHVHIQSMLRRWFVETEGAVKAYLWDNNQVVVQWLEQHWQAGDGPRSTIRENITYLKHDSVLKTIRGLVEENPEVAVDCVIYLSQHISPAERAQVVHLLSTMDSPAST
The compound `CC(=O)NC(C)Cc1ccc(C#Cc2ccnc(N3CCC(CO)C3)n2)cc1` (stereo not shown) [Example 11.10] had an IC50 of 16700 nM. In the case of `CC(=O)NC(C)Cc1ccc(C#Cc2ccnc(N(C)C3CCCCC3)n2)cc1` (stereo not shown) [Example 11.11] it was 260 nM; in that of `CC(=O)NC(C)Cc1ccc(C#Cc2ccnc(N3CCC3)n2)cc1` (stereo not shown) [Example 11.12], 5600 nM; in that of `CC(=O)NC(C)Cc1ccc(C#Cc2ccnc(NCC3CC3)n2)cc1` (stereo not shown) [Example 11.13], 1900 nM. Compound `CCNc1nccc(C#Cc2ccc(CC(C)NC(C)=O)cc2)n1` (stereo not shown) [Example 11.14] gave a concentration for half-maximal inhibition (IC50) of 13800 nM.

Compound `CC(=O)NC(C)Cc1ccc(C#Cc2ccnc(N(C)CC(C)C)n2)cc1` (stereo not shown) [Example 11.15] returned a half-inhibitory concentration (IC50) of 330 nM. The compound `CC(=O)NC(C)Cc1ccc(C#Cc2ccnc(N3CCCC(F)C3)n2)cc1` (stereo not shown) [Example 11.16] came in with an IC50 of 680 nM.

As for `COC(C)CN(C)c1nccc(C#Cc2ccc(CC(C)NC(C)=O)cc2)n1` (stereo not shown) [Example 11.17], the IC50 turned out to be 1700 nM. As for `CC(=O)NC(C)Cc1ccc(C#Cc2ccnc(N3CCC(C(F)(F)F)CC3)n2)cc1` (stereo not shown) [Example 11.18], 510 nM corresponded to half-maximal inhibition (IC50). In the case of `CC(=O)NC(C)Cc1ccc(C#Cc2ccnc(NC(C)C3CC3)n2)cc1` (stereo not shown) [Example 11.19], it took 5900 nM to reach half-maximal inhibition (IC50).

`CC(=O)NC(C)Cc1ccc(C#Cc2ccnc(N(C)CC3CC3)n2)cc1` (stereo not shown) [Example 11.21]: half-maximal inhibition (IC50) was put at 250 nM. As for `CC(=O)NC(C)Cc1ccc(C#Cc2ccnc(N3CC(F)(F)C3)n2)cc1` (stereo not shown) [Example 11.22], the figure is 8100 nM. In the case of `CC(=O)NC(C)Cc1ccc(C#Cc2ccnc(N(C)CC3CCCCC3)n2)cc1` (stereo not shown) [Example 11.23] it was 370 nM; in that of `CC(=O)NC(C)Cc1ccc(C#Cc2ccnc(N3CCC(C)(C)C3)n2)cc1` (stereo not shown) [Example 11.24], 390 nM.

The compound `CC#CCN(CC(C)C)c1nccc(C#Cc2ccc(CC(C)NC(C)=O)cc2)n1` (stereo not shown) [Example 11.25] gave an IC50 of 1800 nM. In turn, `CC(=O)NC(C)Cc1ccc(C#Cc2ccnc(N3CCC4(CCC4)C3)n2)cc1` (stereo not shown) [Example 11.26] registered an IC50 of 430 nM.

Consider `CC(=O)NC(C)Cc1ccc(C#Cc2ccnc(N3CCCC(c4ccccc4)C3)n2)cc1` (stereo not shown) [Example 11.27], for which the IC50 was 400 nM.

With `CC(=O)NC(C)Cc1ccc(C#Cc2ccnc(N3CCC4(CCCC4)C3)n2)cc1` (stereo not shown) [Example 11.28], it took 380 nM to reach half-maximal inhibition (IC50).

Regarding `CC(=O)NC(C)Cc1ccc(C#Cc2ccnc(N3CCC(C#N)C3)n2)cc1` (stereo not shown) [Example 11.29], it took 4500 nM to reach half-maximal inhibition (IC50). The compound `CC(=O)NC(C)Cc1ccc(C#Cc2ccnc(N(C)C3CCOC3)n2)cc1` (stereo not shown) [Example 11.31] had an IC50 of 2000 nM. `CC(=O)NC(C)Cc1ccc(C#Cc2ccnc(N(C)CCC(C)(C)C)n2)cc1` (stereo not shown) [Example 11.32]: it took 350 nM to reach half-maximal inhibition (IC50).

For the compound `CC(=O)NC(C)Cc1ccc(C#Cc2ccnc(N(C)CC(F)(F)F)n2)cc1` (stereo not shown) [Example 11.33], the IC50 was 680 nM. In turn, `COC1CN(c2nccc(C#Cc3ccc(CC(C)NC(C)=O)cc3)n2)C1` (stereo not shown) [Example 11.34] came in with an IC50 of 13900 nM. As for `COCC1CCCN1c1nccc(C#Cc2ccc(CC(C)NC(C)=O)cc2)n1` (stereo not shown) [Example 11.35], the figure is 2400 nM; as for `CC(=O)NC(C)Cc1ccc(C#Cc2ccnc(N3CCCC(C(F)(F)F)C3)n2)cc1` (stereo not shown) [Example 11.36], 690 nM. As for `CC(=O)NC(C)Cc1ccc(C#Cc2ccnc(N3CCN(C)CC3)n2)cc1` (stereo not shown) [Example 11.37], the figure is 14300 nM; as for `CC(=O)NC(C)Cc1ccc(C#Cc2ccnc(N3CCCCC3)n2)cc1` (stereo not shown) [Example 11.38], 430 nM. In the case of `CC(=O)NC(C)Cc1ccc(C#Cc2ccnc(N3CCCCC3C)n2)cc1` (stereo not shown) [Example 11.39] it was 720 nM; in that of `CC(=O)NC(C)Cc1ccc(C#Cc2ccnc(N3CCC(c4ccccc4)CC3)n2)cc1` (stereo not shown) [Example 11.40], 1100 nM. In the case of `CC(=O)NC(C)Cc1ccc(C#Cc2ccnc(Nc3ccccc3)n2)cc1` (stereo not shown) [Example 11.41], inhibition was half-maximal at 2700 nM (IC50).

Compound `CC(=O)NC(C)Cc1ccc(C#Cc2ccnc(N3CCOCC3)n2)cc1` (stereo not shown) [Example 11.42] showed an IC50 of 620 nM. `CC(=O)NC(C)Cc1ccc(C#Cc2ccnc(N3CCCC3)n2)cc1` (stereo not shown) [Example 11.43]: the IC50 amounted to 930 nM.

Consider `CC(=O)NC(C)Cc1ccc(C#Cc2ccnc(NCC(C)C)n2)cc1` (stereo not shown) [Example 11.44], for which the IC50 came to 1300 nM. As for `CC(=O)NC(C)Cc1ccc(C#Cc2ccnc(N(C)Cc3ccccc3)n2)cc1` (stereo not shown) [Example 11.45], the figure is 530 nM; as for `CCCN(C)c1nccc(C#Cc2ccc(CC(C)NC(C)=O)cc2)n1` (stereo not shown) [Example 11.46], 290 nM. As for `CC(=O)NC(C)Cc1ccc(C#Cc2ccnc(N3CCN(S(C)(=O)=O)CC3)n2)cc1` (stereo not shown) [Example 11.47], the figure is 7400 nM.

For the compound `COC(=O)CN(C)c1nccc(C#Cc2ccc(CC(C)NC(C)=O)cc2)n1` (stereo not shown) [Example 11.48], the IC50 came to 10300 nM. In the case of `CCN(CC)c1nccc(C#Cc2ccc(CC(C)NC(C)=O)cc2)n1` (stereo not shown) [Example 11.49] it was 460 nM; in that of `CCOc1nccc(C#Cc2ccc(CC(C)NC(C)=O)cc2)n1` (stereo not shown) [Example 12.1, N-(1-(4-((2-ethoxypyrimidin-4-yl)ethynyl)phenyl)propan-2-yl)acetamide], 8500 nM; in that of `CC(=O)NC(C)Cc1ccc(C#Cc2ccnc(OC3CCCC3)n2)cc1` (stereo not shown) [Example 12.2], 4300 nM. On to `CC(=O)NC(C)Cc1ccc(C#Cc2ccnc(Oc3ccccc3)n2)cc1` (stereo not shown) [Example 12.3], for which half-maximal inhibition (IC50) required 1300 nM.

In turn, `CC(=O)NC(C)Cc1ccc(C#Cc2ccnc(OCC(C)C)n2)cc1` (stereo not shown) [Example 12.4] yielded an IC50 of 980 nM. As for `CC(=O)NC(C)Cc1ccc(C#Cc2ccnc(OCC3CC3)n2)cc1` (stereo not shown) [Example 12.5], the figure is 1600 nM; as for `CC(=O)NC(C)Cc1ccc(C#Cc2ccnc(OC3CCC3)n2)cc1` (stereo not shown) [Example 12.6], 1100 nM. Regarding `CCC(C)Oc1nccc(C#Cc2ccc(CC(C)NC(C)=O)cc2)n1` (stereo not shown) [Example 12.7], half-maximal inhibition (IC50) required 3600 nM.

Regarding `CCCOc1nccc(C#Cc2ccc(CC(C)NC(C)=O)cc2)n1` (stereo not shown) [Example 12.8], the IC50 was determined as 2200 nM. In the case of `COCCOc1ncc(C#Cc2ccc(CC(C)NC(C)=O)cc2)cn1` (stereo not shown) [Example 12.9] it was 2100 nM; in that of `CC(=O)NC(C)Cc1ccc(C#Cc2cnc(OC3CCOC3)nc2)cc1` (stereo not shown) [Example 12.10], 630 nM; in that of `CC(=O)NC(C)Cc1ccc(C#Cc2cnc(OCC(C)C)nc2)cc1` (stereo not shown) [Example 12.11], 670 nM.

In the case of `CC(=O)NC(C)Cc1ccc(C#Cc2cnc(OC3CCC3)nc2)cc1` (stereo not shown) [Example 12.12], the IC50 was determined as 90 nM. Regarding `CC(=O)NC(C)Cc1ccc(C#Cc2cnc(OCC3(C)CC3)nc2)cc1` (stereo not shown) [Example 12.13], the IC50 is 430 nM. For the compound `CC(=O)NC(C)Cc1ccc(C#Cc2cnc(OCc3cc(C)on3)nc2)cc1` (stereo not shown) [Example 12.14], the IC50 was found to be 2500 nM. In the case of `CCCOc1ncc(C#Cc2ccc(CC(C)NC(C)=O)cc2)cn1` (stereo not shown) [Example 12.15] it was 230 nM; in that of `CC(=O)NC(C)Cc1ccc(C#Cc2cnc(Oc3ccccc3)nc2)cc1` (stereo not shown) [Example 12.16], 170 nM; in that of `CCOc1ncc(C#Cc2ccc(CC(C)NC(C)=O)cc2)cn1` (stereo not shown) [Example 12.17], 380 nM. As for `CC(=O)NC(C)Cc1ccc(C#Cc2ccnc(OC(C)C)n2)cc1` (stereo not shown) [Example 12.18], the figure is 7100 nM; as for `CC(=O)NC(C)Cc1ccc(C#Cc2cnc(OCCC(C)C)nc2)cc1` (stereo not shown) [Example 12.19], 1200 nM. As for `CC(=O)NC(C)Cc1ccc(C#Cc2cnc(OCc3ccccc3)nc2)cc1` (stereo not shown) [Example 12.20], the figure is 530 nM; as for `CC(=O)NC(C)Cc1ccc(C#Cc2cnc(OC(C)C)nc2)cc1` (stereo not shown) [Example 12.21], 380 nM. In the case of `CC(Cc1ccc(C#Cc2cnc(OC3CCC3)nc2)cc1)NC(=O)C1CC1` (stereo not shown) [Example 12.22], the IC50 was found to be 640 nM.

As for `CCCOc1ncc(C#Cc2ccc(CC(C)NC(=O)C3CC3)cc2)cn1` (stereo not shown) [Example 12.23], inhibition was half-maximal at 1100 nM (IC50). As for `CC(Cc1ccc(C#Cc2cnc(Oc3ccccc3)nc2)cc1)NC(=O)C1CC1` (stereo not shown) [Example 12.24], the figure is 590 nM. Compound `CC(Cc1ccc(C#Cc2cnc(OC(C)C)nc2)cc1)NC(=O)C1CC1` (stereo not shown) [Example 12.25] had an IC50 of 2400 nM. In the case of `CCCOc1ncc(C#Cc2ccc(CC(C)NC(=O)OC)cc2)cn1` (stereo not shown) [Example 12.26] it was 1000 nM; in that of `COC(=O)NC(C)Cc1ccc(C#Cc2cnc(Oc3ccccc3)nc2)cc1` (stereo not shown) [Example 12.27], 860 nM; in that of `COC(=O)NC(C)Cc1ccc(C#Cc2cnc(OC(C)C)nc2)cc1` (stereo not shown) [Example 12.28], 1100 nM. In the case of `CC(Cc1ccc(C#Cc2cnc(OC3CCC3)nc2)cc1)NC(=O)N(C)C` (stereo not shown) [Example 12.29] it was 70 nM; in that of `CCCOc1ncc(C#Cc2ccc(CC(C)NC(=O)N(C)C)cc2)cn1` (stereo not shown) [Example 12.30], 190 nM; in that of `CC(=O)NC(C)Cc1ccc(C#Cc2cnc(OCCF)nc2)cc1` (stereo not shown) [Example 12.31], 1100 nM. In the case of `CC(=O)NC(C)Cc1ccc(C#Cc2cnc(OCCc3ccccc3)nc2)cc1` (stereo not shown) [Example 12.32], inhibition was half-maximal at 320 nM (IC50). In the case of `CC(=O)NC(C)Cc1ccc(C#Cc2cnc(OCCC3CC3)nc2)cc1` (stereo not shown) [Example 12.33], the IC50 turned out to be 320 nM. In the case of `CCCCOc1ncc(C#Cc2ccc(CC(C)NC(C)=O)cc2)cn1` (stereo not shown) [Example 12.34] it was 280 nM.

The compound `CC(=O)NC(C)Cc1ccc(C#Cc2cnc(OC(C)c3ccncc3)nc2)cc1` (stereo not shown) [Example 12.35] showed an IC50 of 2300 nM.

With `CC(=O)NC(C)Cc1ccc(C#Cc2cnc(OCc3cncs3)nc2)cc1` (stereo not shown) [Example 12.36], the IC50 turned out to be 1500 nM.

Turning to `CCC(COC)Oc1ncc(C#Cc2ccc(CC(C)NC(C)=O)cc2)cn1` (stereo not shown) [Example 12.37], the IC50 worked out at 1100 nM. `CC(=O)NC(C)Cc1ccc(C#Cc2cnc(OC(C)C(F)(F)F)nc2)cc1` (stereo not shown) [Example 12.38] yielded an IC50 of 260 nM.
